According to patent publication US20250064781A1, “METHODS OF TREATING, AMELIORATING, AND/OR PREVENTING STRESS-RELATED DISORDER” (Yale University, priority 2021, published 2025):
“Also recorded” adds a separate entry of the source. Structures can show the parent of a compound that is named as a salt. Where two headings read alike, the source gives them in different places.

How the values were obtained:
[1] = biological target: T1, α1A-adrenergic receptor subtype (α1A-AR) (Homo sapiens, UniProt P35348); conditions: Kenny et al., cited from earlier work; for pKi for α1A-AR: cloned human receptor, Br J Pharmacol. 1996; for α1-adrenoceptor subtype preference (in words): as previously reported
T1 sequence (P35348 1-466): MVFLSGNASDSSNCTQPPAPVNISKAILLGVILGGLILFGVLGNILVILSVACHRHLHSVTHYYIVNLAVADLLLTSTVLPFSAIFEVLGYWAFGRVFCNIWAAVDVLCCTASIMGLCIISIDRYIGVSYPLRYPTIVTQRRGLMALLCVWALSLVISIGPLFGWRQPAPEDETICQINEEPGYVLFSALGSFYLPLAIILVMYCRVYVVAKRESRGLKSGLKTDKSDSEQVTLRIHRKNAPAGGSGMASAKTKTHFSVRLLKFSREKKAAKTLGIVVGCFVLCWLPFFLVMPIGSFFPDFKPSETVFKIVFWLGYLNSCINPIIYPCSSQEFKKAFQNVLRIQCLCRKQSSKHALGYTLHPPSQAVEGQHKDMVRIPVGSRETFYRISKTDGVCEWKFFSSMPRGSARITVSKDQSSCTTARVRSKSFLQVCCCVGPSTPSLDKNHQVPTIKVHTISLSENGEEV

[2] = biological target: T2, α1D-adrenergic receptor subtype (α1D-AR) (Homo sapiens, UniProt P25100); conditions: cited from earlier work
T2 sequence (P25100 1-572): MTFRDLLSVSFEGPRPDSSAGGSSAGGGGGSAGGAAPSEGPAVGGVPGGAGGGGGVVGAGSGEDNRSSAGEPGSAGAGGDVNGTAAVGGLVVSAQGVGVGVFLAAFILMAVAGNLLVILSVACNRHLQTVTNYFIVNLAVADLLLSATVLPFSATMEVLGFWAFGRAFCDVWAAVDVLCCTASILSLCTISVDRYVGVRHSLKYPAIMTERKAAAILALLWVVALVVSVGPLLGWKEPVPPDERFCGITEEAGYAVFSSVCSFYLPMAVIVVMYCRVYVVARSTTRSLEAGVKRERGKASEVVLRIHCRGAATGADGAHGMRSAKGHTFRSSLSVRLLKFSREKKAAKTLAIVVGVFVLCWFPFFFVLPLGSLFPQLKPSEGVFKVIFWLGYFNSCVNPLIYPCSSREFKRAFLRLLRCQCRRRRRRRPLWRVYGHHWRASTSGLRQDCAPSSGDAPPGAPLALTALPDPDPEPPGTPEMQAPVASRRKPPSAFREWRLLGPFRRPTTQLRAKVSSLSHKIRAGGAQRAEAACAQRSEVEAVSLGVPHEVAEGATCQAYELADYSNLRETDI

[3] = test system: rhesus monkeys performing a spatial working memory task; test: spatial working memory task (oculomotor delayed response, ODR) in monkeys exposed to stress; format: in vivo, Rhesus monkeys (Macaca mulatta); conditions: for performance (percent correct) in spatial working memory task under stress / performance in spatial working memory task under stress: versus VEH+STRESS; for effect on stress-induced prefrontal deficits: rhesus monkeys, dose not stated; for performance in spatial working memory task under stress: FIGS. 3 and 4, 0.1 mg/kg pretreatment before the stressor
Procedure: Rhesus monkeys (Macaca mulatta) exposed to stress or vehicle and administered with RS17053 (“RS17”) or vehicle (“VEH”) (FIG. 1) or administered with silodosin (“SIL”) or vehicle (“VEH”) were subjected to the oculomotor delayed response (ODR) tasks similar to those as described previously (Datta et al., J Neurosci. 2019 Apr. 3;39(14):2722-2734, the entirety of the journal article is hereby incorporated herein by reference). Specifically, the experiments were performed as the follows:
The monkeys were seated in primate chairs with their heads fixed and faced a 27-inch computer monitor 30 inches in front of them. The monkeys' eye positions were monitored with the ISCAN Eye Movement Monitoring System. The monkeys were pretrained on the visuospatial ODRtask, which required the subject to make a memory-guided saccade to a remembered visuospatial target. The ODR task was generated by the PICTO system (custom-designed, Windows-based data acquisition software). A central small white circle was illuminated on the computer monitor, which served as the fixation target. To initiate a trial, the animal fixated this central target and maintained fixation for 0.5 s (fixation period), whereupon a cue (the same sized white circle) was illuminated for a period of 0.5 s (cue period) at 1 of 8 peripheral targets located at an eccentricity of 13° with respect to the fixation spot. After the cue was extinguished, a 2.5 s delay period followed. The subject was required to maintain central fixation throughout both the cue presentation and the delay period. At the end of the delay, the fixation spot was extinguished, which instructed the monkey to make a memory-guided saccade to the location where the cue had been shown before the delay period. A trial was considered successful if the subject's response was completed within 0.5 s of the offset of the fixation spot and was within 2° around the correct cue location. The subject was rewarded with fruit juice immediately after every successful response. The position of the stimulus was randomized over trials such that it had to be remembered on a triα1-by-trial basis. The intertrial intervals (ITIs) were at least 3 s. The subject performed 1000-1500 trials per session.

[4] = biological target: T3, α1B-adrenergic receptor subtype (α1B-AR) (Homo sapiens, UniProt P35368); conditions: cited from earlier work
T3 sequence (P35368 1-520): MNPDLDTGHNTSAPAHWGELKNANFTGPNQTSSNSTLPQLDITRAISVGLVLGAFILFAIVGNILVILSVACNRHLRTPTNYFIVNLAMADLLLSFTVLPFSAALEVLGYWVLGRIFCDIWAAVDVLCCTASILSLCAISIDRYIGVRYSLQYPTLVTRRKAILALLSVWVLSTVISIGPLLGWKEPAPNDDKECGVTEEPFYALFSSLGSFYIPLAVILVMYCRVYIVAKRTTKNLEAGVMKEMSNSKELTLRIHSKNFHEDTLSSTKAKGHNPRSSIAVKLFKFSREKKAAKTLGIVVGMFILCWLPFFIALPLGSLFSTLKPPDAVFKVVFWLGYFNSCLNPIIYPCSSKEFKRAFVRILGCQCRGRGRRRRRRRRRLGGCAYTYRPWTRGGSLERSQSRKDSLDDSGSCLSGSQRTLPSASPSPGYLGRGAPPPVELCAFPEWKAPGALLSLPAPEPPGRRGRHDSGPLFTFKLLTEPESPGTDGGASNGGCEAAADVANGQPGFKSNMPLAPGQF

[5] = biological target: T1, α1A-adrenergic receptor subtype (α1A-AR); conditions: concluded from the Kenny et al. pKi values
[6] = cloned human receptor, Kenny et al., Br J Pharmacol. 1996
[7] = Williams et al. Br J Pharmacol. 1999
[8] = CHMP assessment report for Silodyx

Compound	pKi for α1A-AR [1]	pKi for α1D-AR [2, 6]	effect on stress-induced prefrontal deficits [3]	α1-adrenoceptor subtype preference (in words) [1]	pKi for α1B-AR [4, 6]	performance in spatial working memory task under stress [3]	also measured
1-(4-amino-6,7-dimethoxy-2-quinazolinyl)-4-[[2-methoxy-6-(1-methylethyl)phenoxy]acetyl]piperazine [Rec 15/2739]	9.0±0.07	8.6±0.07	–	–	–	–	–
CC(C)(Cc1c[nH]c2ccc(Cl)cc12)NCCOc1ccccc1OCC1CC1 [RS17053, N-[2-(2-cyclopropylmethoxyphenoxy)ethyl]-5-chloro-α,α-dimethyl-1H-indole-3-ethanamine]	8.6±0.09	7.1±0.09	completely blocked the stress-induced prefrontal deficits	strong preference for α1A-AR	7.3±0.09	–	performance (percent correct) in spatial working memory task under stress ([3]; FIG. 1, pretreatment 0.1 mg/kg-1 mg/kg before the stressor): protected from stress exposure; performance (percent correct) in spatial working memory task under stress ([3]; FIG. 2, low dose 0.01 mg/kg pretreatment before the stressor): blocked the stress-induced prefrontal deficits; also recorded: protected from stress exposure; effect on spatial working memory performance without stress ([3]; monkeys not subjected to stress, VEH+VEH vs. RS17+VEH): no significant effect
Cc1c[nH]c(=O)n(CCCN2CCN(c3ccccc3OCC(F)(F)F)CC2)c1=O [RS 100329 hydrochloride, 5-Methyl-3-[3-[3-[4-[2-(2,2,2,-trifluroethoxy)phenyl]-1-piperazinyl]propyl]-2,4-(1H,3H)-pyrimidinedione hydrochloride]	–	–	–	–	–	–	selectivity for α1A-AR over α1B-AR [4, 7]: 126 fold; selectivity for α1A-AR over α1D-AR [2, 7]: 50 fold
COc1cc2nc(N3CCN(C(=O)C4COc5ccccc5O4)CC3)nc(N)c2cc1OC (centres unmarked) [doxazosin]	–	–	–	–	–	–	α1-adrenoceptor subtype preference (in words) [5]: has a preference for the α1B subtype, rather than the α1A subtype
C[C@H](Cc1cc2c(c(C(N)=O)c1)N(CCCO)CC2)NCCOc1ccccc1OCC(F)(F)F [silodosin]	–	–	completely blocked the stress-induced prefrontal deficits	–	–	protected from stress exposure	pKi for α1B-AR [4, 8]: 8.19; pKi for α1D-AR [2, 8]: 8.66
CCOc1ccccc1OCCNC(C)Cc1ccc(OC)c(S(N)(=O)=O)c1 (centres unmarked) [tamsulosin, 5-(2-{[2-(2-Ethoxyphenoxy)ethyl]amino}propyl)-2-methoxybenzene-1-sulfonamide]	–	8.1±0.04	effective for treating disorders consequent of stress	preference for α1A-AR and α1D-AR over α1B-AR	7.0±0.08	protected from stress exposure	effect on stress-induced prefrontal deficits ([3]; listed as tamulosin): completely blocked the stress-induced prefrontal deficits
